Assay results from patent US11981686B2, “Urea compound having substituent” (DAIICHI SANKYO COMPANY, LIMITED, priority 2019, dated 2024).

Target: SIRT6 enzyme (Homo sapiens, UniProt Q8N6T7)
Test: Measurement of deacetylation activity (SIRT6, AlphaLISA, H3K9(Ac) peptide)
Type: biochemical
Conditions: SIRT6 25 ng/mL, H3K9(Ac) biotin peptide 2 nM, NAD 10 μM, room temperature 30 minutes, duplicate
Description: The reaction was performed in duplicate using a white 384-well plate (3824, Corning or 6008350, PerkinElmer) at a final reaction liquid volume of 20.1 μL. As a control for calculating the enzyme activity, the enzyme-added (DMSO (+)) and enzyme-free (DMSO (−)) wells were set at n=8. Test substances (examples of final concentrations: 0.046, 0.14, 0.41, 1.2, 3.7, 11, 33, and 100 μM) at a concentration of 100 times or 0.1 μL of DMSO was dispensed into the plate and 5 μL of SIRT6 enzyme (prepared by Daiichi Sankyo RD Novare Co., Ltd., final concentration: 25 ng/mL) diluted with an assay buffer (10 mM Tris-HCl pH of 8.0, 0.1% BSA, 0.01% Tween 20, 1 mM DTT, 12.5% Glycerol) was added thereto. The enzymatic reaction was started by adding 5 μL of a mixed solution [Lys(Ac)9]-Histone H3 (1-21)-NH2, H3K9 (Ac), biotin-labeled, amide (AnaSpec, AS-64190, final concentration: 2 nM) and β-nicotinamide adenine dinucleotide (Sigma-Aldrich, N8285-15VL, final concentration: 10 μM), and the reaction was performed at room temperature for 30 minutes. 10 μL of a mixed solution of nicotinamide (Sigma-Aldrich, 72340-100G, final concentration: 100 mM) prepared with AlphaLISA Epigenetics Buffer (PerkinElmer, AL008C), AlphaLISA Anti-unmodified Histone H3 Lysine 9/Lysine 27 (H3K9/K27) Acceptor Beads (PerkinElmer, AL138, final concentration: 10 μg/mL), and AlphaScreen Streptavidin Donor beads (PerkinElmer, 6760002, final concentration: 5 μg/mL) was added thereto, the reaction was performed at room temperature for 60 minutes and then stopped, and acetylation was detected. The emission intensity was measured by EnVision (PerkinElmer).
The relative enzyme activity (%) of the test substance was calculated by the following equation. Relative enzyme activity (%)=[(emission intensity of test substance-added well−emission intensity of DMSO (−) well)/(emission intensity of DMSO (+) well−emission intensity of DMSO (−) well)]×100
The EC150 (the concentration of the compound showing a relative enzyme activity of 150%) of the test substance was calculated based on Sigmoidal dose-response (variable slope) of GraphPad Prism (GraphPad Software) using the value of the relative enzyme activity (%) at each concentration, and the results are listed in Tables 1-1 to 1-5.

Sequence of SIRT6 enzyme (Q8N6T7 whole entry, species assumed): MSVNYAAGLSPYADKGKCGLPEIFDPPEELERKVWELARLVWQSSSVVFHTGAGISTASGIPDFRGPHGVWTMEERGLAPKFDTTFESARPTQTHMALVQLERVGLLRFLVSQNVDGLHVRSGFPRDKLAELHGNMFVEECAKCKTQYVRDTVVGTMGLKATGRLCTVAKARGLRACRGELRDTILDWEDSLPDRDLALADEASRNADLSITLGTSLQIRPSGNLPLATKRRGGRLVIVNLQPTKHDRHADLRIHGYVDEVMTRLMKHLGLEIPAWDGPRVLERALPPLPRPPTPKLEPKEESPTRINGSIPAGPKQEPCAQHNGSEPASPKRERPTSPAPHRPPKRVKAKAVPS

Structure (SMILES)	EC150 (the concentration of the compound showing a relative enzyme activity of 150%) [μm]
CNC(=O)Nc1nc2c(s1)[C@@H]1CC[C@H](C2)N1c1nc(-c2ccc(F)cc2)no1 (relative stereo) [Example 10, N-{(5R*,8S*)-9-[3-(4-fluorophenyl)-1,2,4-oxadiazol-5-yl]-5,6,7,8-tetrahydro-4H-5,8-epiminocyclohepta[d][1,3]thiazol-2-yl}-N′-methylurea]	1.0
CNC(=O)Nc1nc2c(s1)[C@@H]1CCC[C@H](C2)N1c1nc(-c2ccc(F)cc2)no1 (relative stereo) [Example 12, N-{(5R*,9S*)-10-[3-(4-fluorophenyl)-1,2,4-oxadiazol-5-yl]-4,5,6,7,8,9-hexahydro-5,9-epiminocycloocta[d][1,3]thiazol-2-yl}-N′-methylurea]	1.4
CNC(=O)Nc1nc2c(s1)[C@H]1CN(C(C)=O)C[C@@H](C2)N1c1nc(-c2ccc(F)cc2)no1 (relative stereo) [Example 23, (−)-N-{(4R*,8R*)-6-acetyl-10-[3-(4-fluorophenyl)-1,2,4-oxadiazol-5-yl]-4,5,6,7,8,9-hexahydro-4,8-epimino[1,3]thiazolo[5,4-d]azocin-2-yl}-N′-methylurea]	0.19
CNC(=O)Nc1nc2c(s1)[C@H]1CN(C(=O)OC)C[C@@H](C2)N1c1nc(-c2ccc(F)cc2)no1 (relative stereo) [Example 24, (−)-Methyl (4R*,8R*)-10-[3-(4-fluorophenyl)-1,2,4-oxadiazol-5-yl]-2-[(methylcarbamoyl)amino]-4,7,8,9-tetrahydro-4,8-epimino[1,3]thiazolo[5,4-d]azocine-6(5H)-carboxylate]	0.19
COC(=O)N1C[C@H]2Cc3nc(NC(=O)NCC(C)(C)O)sc3[C@@H](C1)N2c1nc(C2(C(F)(F)F)CC2)no1 (relative stereo) [Example 33, Methyl (4R*,8R*)-2-{[(2-hydroxy-2-methylpropyl)carbamoyl]amino}-10-{3-[1-(trifluoromethyl)cyclopropyl]-1,2,4-oxadiazol-5-yl}-4,7,8,9-tetrahydro-4,8-epimino[1,3]thiazolo[5,4-d]azocine-6(5H)-carboxylate]	1.6
CNC(=O)Nc1nc2c(s1)[C@@H]1COC[C@H](C2)N1c1nc(-c2ccc(F)cc2)no1 (single isomer, unassigned) [Example 13]	1.3
CNC(=O)Nc1nc2c(s1)CN(c1nc(C3CCC(F)(F)CC3)no1)CC2 [Example 1, N-{5-[3-(4,4-difluorocyclohexyl)-1,2,4-oxadiazol-5-yl]-4,5,6,7-tetrahydro[1,3]thiazolo[5,4-c]pyridin-2-yl}-N′-methylurea]	1.7
CNC(=O)Nc1nc2c(s1)CN(c1nnc(C(F)(F)F)o1)CC2 [Example 2, N-methyl-N′-{5-[5-(trifluoromethyl)-1,3,4-oxadiazol-2-yl]-4,5,6,7-tetrahydro[1,3]thiazolo[5,4-c]pyridin-2-yl}urea]	1.6
CCO[C@H](C)c1nnc(N2CCc3nc(NC(=O)NC)sc3C2)o1 [Example 3, N-(5-{5-[(1R)-1-ethoxyethyl]-1,3,4-oxadiazol-2-yl}-4,5,6,7-tetrahydro[1,3]thiazolo[5,4-c]pyridin-2-yl)-N′-methylurea]	3.4
CNC(=O)Nc1nc2c(s1)CN(c1nc(C(C)OCC(F)(F)F)no1)CC2 (stereo not shown) [Example 4, N-methyl-N′-(5-{3-[1-(2,2,2-trifluoroethoxy)ethyl]-1,2,4-oxadiazol-5-yl}-4,5,6,7-tetrahydro[1,3]thiazolo[5,4-c]pyridin-2-yl)urea]	1.2
C[C@H](CO)NC(=O)Nc1nc2c(s1)CN(c1nc(C3CCC(F)(F)CC3)no1)CC2 [Example 5, N-{5-[3-(4,4-difluorocyclohexyl)-1,2,4-oxadiazol-5-yl]-4,5,6,7-tetrahydro[1,3]thiazolo[5,4-c]pyridin-2-yl}-N′-[(2R)-1-hydroxypropan-2-yl]urea]	1.5
CNC(=O)Nc1nc2c(s1)C1COCC(C2)N1c1nc([C@H]2CC[C@@H](C(F)(F)F)CC2)no1 (stereo partly shown) [Example 6, N-methyl-N′-(10-{3-[(1s,4s)-4-(trifluoromethyl)cyclohexyl]-1,2,4-oxadiazol-5-yl}-4,7,8,9-tetrahydro-5H-4,8-epiminooxocino[5,4-d][1,3]thiazol-2-yl)urea]	4.5
CNC(=O)Nc1nc2c(s1)[C@@H]1COC[C@H](C2)N1c1nc(C2CCC(F)(F)CC2)no1 [Example 7, N-{(4S,8S)-10-[3-(4,4-difluorocyclohexyl)-1,2,4-oxadiazol-5-yl]-4,7,8,9-tetrahydro-5H-4,8-epiminooxocino[5,4-d][1,3]thiazol-2-yl}-N′-methylurea]	5.7
CNC(=O)Nc1nc2c(s1)CN(c1nc(-c3cccc(OC(F)(F)F)c3)no1)CC2 [Example 8, N-methyl-N′-(5-{3-[3-(trifluoromethoxy)phenyl]-1,2,4-oxadiazol-5-yl}-4,5,6,7-tetrahydro[1,3]thiazolo[5,4-c]pyridin-2-yl)urea]	3.6
CNC(=O)Nc1nc2c(s1)CN(c1nnc(-c3ccc(F)c(C)c3)o1)CC2 [Example 9, N-{5-[5-(4-fluoro-3-methylphenyl)-1,3,4-oxadiazol-2-yl]-4,5,6,7-tetrahydro[1,3]thiazolo[5,4-c]pyridin-2-yl}-N′-methylurea]	1.2
CNC(=O)Nc1nc2c(s1)C1CCC(C2)N1c1cc(-c2ccc(F)cc2)on1 (stereo not shown) [Example 11, N-{9-[5-(4-fluorophenyl)-1,2-oxazol-3-yl]-5,6,7,8-tetrahydro-4H-5,8-epiminocyclohepta[d][1,3]thiazol-2-yl}-N′-methylurea]	4.3
CNC(=O)Nc1nc2c(s1)C1COCC(C2)N1c1ncc(-c2cccc(C(F)F)c2)o1 (stereo not shown) [Example 14, N-(10-{5-[3-(difluoromethyl)phenyl]-1,3-oxazol-2-yl}-4,7,8,9-tetrahydro-5H-4,8-epiminooxocino[5,4-d][1,3]thiazol-2-yl)-N′-methylurea]	0.94
CNC(=O)Nc1nc2c(s1)[C@@H]1COC[C@H](C2)N1c1ncc(-c2cccc(OC)n2)o1 [Example 15, N-{(4S,8S)-10-[5-(6-methoxypyridin-2-yl)-1,3-oxazol-2-yl]-4,7,8,9-tetrahydro-5H-4,8-epiminooxocino[5,4-d][1,3]thiazol-2-yl}-N′-methylurea]	1.1
CNC(=O)Nc1nc2c(s1)C1COCC(C2)N1c1cc(-c2ccc(F)cc2)on1 (stereo not shown) [Example 16, N-{10-[5-(4-fluorophenyl)-1,2-oxazol-3-yl]-4,7,8,9-tetrahydro-5H-4,8-epiminooxocino[5,4-d][1,3]thiazol-2-yl}-N′-methylurea]	4.2
CNC(=O)Nc1nc2c(s1)[C@@H]1COC[C@H](C2)N1c1nc(-c2ccc(F)cc2)co1 [Example 17, N-{(4S,8S)-10-[4-(4-fluorophenyl)-1,3-oxazol-2-yl]-4,7,8,9-tetrahydro-5H-4,8-epiminooxocino[5,4-d][1,3]thiazol-2-yl}-N′-methylurea]	1.8
C[C@H](CO)NC(=O)Nc1nc2c(s1)C1COCC(C2)N1c1nc(-c2ccc(F)cc2)no1 (stereo partly drawn) [Example 18, N-{10-[3-(4-fluorophenyl)-1,2,4-oxadiazol-5-yl]-4,7,8,9-tetrahydro-5H-4,8-epiminooxocino[5,4-d][1,3]thiazol-2-yl}-N′-[(2R)-1-hydroxypropan-2-yl]urea]	0.95
CNC(=O)Nc1nc2c(s1)C1CN(C(C)=O)CC(C2)N1c1nc(-c2ccc(F)cc2)no1 (stereo not shown) [Example 19, N-{6-acetyl-10-[3-(4-fluorophenyl)-1,2,4-oxadiazol-5-yl]-4,5,6,7,8,9-hexahydro-4,8-epimino[1,3]thiazolo[5,4-d]azocin-2-yl}-N′-methylurea]	0.60
